The source made the active and inactive calls.
Experiments:
CAAX prenyl protease 2 [1] = biological target: T1, CAAX prenyl protease 2 (Saccharomyces cerevisiae S288c, UniProt Q03530); type: biochemical
T1 sequence (Q03530 whole entry): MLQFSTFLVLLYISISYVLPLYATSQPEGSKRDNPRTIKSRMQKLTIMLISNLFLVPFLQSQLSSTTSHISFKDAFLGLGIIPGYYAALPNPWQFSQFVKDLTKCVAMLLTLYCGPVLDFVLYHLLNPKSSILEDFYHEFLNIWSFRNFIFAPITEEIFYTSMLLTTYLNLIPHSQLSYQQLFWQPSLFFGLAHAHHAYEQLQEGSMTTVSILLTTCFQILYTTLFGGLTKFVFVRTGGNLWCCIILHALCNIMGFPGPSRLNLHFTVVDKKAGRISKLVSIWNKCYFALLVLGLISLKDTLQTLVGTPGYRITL

CAAX prenyl protease 2 [2] = biological target: T1, CAAX prenyl protease 2; experiment: inhibition of Rce1p peptide cleavage – biochemical, plate reader, dry powder retest, dose response (AID 588851)
[3] = biological target: T2, Corticotropin-releasing factor receptor 2/Corticotropin-releasing factor-binding protein (Homo sapiens, UniProt P24387+Q13324); experiment: activators of CRF receptor 2 with binding protein – uHTS hits, confirmation (AID 602473); type: functional; settings: read-out: EC50_Mean
T2 sequence (Q13324 whole entry): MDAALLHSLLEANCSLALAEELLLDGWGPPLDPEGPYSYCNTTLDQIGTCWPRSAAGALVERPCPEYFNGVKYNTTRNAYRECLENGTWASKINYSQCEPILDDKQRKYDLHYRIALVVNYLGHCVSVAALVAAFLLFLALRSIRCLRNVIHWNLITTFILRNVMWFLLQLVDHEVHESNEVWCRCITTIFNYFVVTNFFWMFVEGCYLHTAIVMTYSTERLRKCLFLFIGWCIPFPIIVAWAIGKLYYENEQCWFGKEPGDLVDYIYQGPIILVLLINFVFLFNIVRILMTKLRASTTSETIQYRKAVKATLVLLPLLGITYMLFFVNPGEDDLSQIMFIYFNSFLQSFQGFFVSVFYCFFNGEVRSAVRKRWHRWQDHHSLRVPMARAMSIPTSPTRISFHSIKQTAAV
T2 sequence (P24387 whole entry): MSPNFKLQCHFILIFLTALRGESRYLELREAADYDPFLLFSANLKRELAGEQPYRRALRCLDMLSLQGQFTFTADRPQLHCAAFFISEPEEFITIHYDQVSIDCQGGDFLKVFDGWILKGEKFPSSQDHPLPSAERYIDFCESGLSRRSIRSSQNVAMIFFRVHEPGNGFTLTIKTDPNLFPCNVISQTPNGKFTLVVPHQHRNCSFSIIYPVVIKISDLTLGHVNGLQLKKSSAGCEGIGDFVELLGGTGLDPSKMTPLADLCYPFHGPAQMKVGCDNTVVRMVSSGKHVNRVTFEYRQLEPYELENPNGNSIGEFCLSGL

[4] = biological target: T2, Corticotropin-releasing factor receptor 2/Corticotropin-releasing factor-binding protein; experiment: Dose Response confirmation of uHTS hits for small molecule antagonists of the CRF-binding protein and CRF-R2 receptor complex.; type: functional; settings: read-out: IC50_Mean
[5] = blockers of CRF-binding protein–CRF-R2 complex – cell-based, uHTS hits, 384-well, dose response (AID 651639); type: functional, Homo sapiens; settings: read-out: IC50_Mean
[6] = biological target: Cyclin-dependent kinase 5/CDK5 activator 1 (Homo sapiens, UniProt Q00535); experiment: human CDK5 activity blockade – biochemical, microfluidic mobility shift, dry powder, selectivity assay for GSK-3 alpha inhibitor project, dose response (AID 588430)
Chain of Cyclin-dependent kinase 5/CDK5 activator 1 (Q00535 whole entry): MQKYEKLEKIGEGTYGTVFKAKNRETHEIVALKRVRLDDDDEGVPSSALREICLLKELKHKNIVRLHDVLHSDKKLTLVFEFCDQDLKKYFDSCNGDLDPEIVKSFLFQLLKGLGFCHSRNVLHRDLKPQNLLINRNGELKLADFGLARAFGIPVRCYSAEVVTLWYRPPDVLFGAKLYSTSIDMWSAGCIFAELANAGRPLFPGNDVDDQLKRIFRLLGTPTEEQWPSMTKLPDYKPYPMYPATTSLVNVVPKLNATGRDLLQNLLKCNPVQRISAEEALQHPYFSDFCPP
Chain of Cyclin-dependent kinase 5/CDK5 activator 1 (Q15078 whole entry, further chain): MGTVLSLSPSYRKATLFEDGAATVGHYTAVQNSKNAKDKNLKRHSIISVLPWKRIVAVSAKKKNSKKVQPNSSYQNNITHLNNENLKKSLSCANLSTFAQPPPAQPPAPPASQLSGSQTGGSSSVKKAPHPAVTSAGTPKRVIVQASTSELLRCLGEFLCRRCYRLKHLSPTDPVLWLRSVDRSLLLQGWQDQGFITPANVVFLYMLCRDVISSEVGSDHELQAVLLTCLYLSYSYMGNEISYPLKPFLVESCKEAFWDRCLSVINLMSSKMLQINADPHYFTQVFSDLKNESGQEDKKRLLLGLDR

[7] = biological target: Glycogen synthase kinase-3 beta (Homo sapiens, UniProt P49841); experiment: Inhibition of Human GSK-3 beta Activity Measured in Biochemical System Using Microfluidics - 2063-05_Inhibitor_Dose_DryPowder_Activity_Set2. [Related pubchem assays (depositor defined):AID2709]
Chain of Glycogen synthase kinase-3 beta (P49841 whole entry): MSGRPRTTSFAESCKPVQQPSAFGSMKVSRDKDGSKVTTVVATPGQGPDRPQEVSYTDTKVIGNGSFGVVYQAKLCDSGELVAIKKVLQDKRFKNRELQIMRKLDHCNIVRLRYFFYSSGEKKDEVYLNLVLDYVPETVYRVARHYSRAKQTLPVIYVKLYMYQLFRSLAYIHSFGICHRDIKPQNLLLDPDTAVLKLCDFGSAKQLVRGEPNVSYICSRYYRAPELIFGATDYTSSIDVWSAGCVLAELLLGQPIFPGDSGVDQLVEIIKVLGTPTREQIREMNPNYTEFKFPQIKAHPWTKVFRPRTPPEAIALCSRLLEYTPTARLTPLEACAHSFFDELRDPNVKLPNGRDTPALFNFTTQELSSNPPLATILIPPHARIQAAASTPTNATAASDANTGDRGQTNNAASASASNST

[8] = biological target: Glycogen synthase kinase-3 alpha (Homo sapiens, UniProt P49840); experiment: Inhibition of Human GSK-3 alpha Activity Measured in Biochemical System Using Microfluidics - 2063-06_Inhibitor_Dose_DryPowder_Activity_Set2. [Related pubchem assays (depositor defined):AID2709]
Chain of Glycogen synthase kinase-3 alpha (P49840 whole entry): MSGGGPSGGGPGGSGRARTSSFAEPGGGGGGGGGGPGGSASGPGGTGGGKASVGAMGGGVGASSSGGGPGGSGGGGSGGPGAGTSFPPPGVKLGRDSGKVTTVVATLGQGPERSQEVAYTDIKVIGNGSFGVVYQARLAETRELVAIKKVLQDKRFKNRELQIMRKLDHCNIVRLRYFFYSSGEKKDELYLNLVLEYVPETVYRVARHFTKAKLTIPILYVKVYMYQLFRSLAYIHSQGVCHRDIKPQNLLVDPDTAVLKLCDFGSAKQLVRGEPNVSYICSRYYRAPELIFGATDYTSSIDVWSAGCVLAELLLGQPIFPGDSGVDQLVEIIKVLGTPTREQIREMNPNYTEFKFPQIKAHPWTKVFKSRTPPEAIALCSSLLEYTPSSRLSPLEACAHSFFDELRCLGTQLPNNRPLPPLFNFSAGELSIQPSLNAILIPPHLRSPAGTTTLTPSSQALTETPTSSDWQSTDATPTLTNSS

X-box-binding protein 1 = X-box-binding protein 1 (Homo sapiens, UniProt P17861); type: functional, Cricetulus griseus;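 further: confirmatory dose-response counter-screen serving a CHOP assay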
Chain of X-box-binding protein 1 (P17861 whole entry): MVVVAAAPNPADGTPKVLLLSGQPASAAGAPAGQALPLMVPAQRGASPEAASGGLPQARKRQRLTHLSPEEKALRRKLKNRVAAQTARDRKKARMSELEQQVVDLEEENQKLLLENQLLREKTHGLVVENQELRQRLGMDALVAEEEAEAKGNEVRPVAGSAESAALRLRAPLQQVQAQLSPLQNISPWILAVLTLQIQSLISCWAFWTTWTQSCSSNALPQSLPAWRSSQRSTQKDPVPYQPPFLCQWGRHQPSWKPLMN

[9] = biological target: Protein disulfide-isomerase (Homo sapiens, UniProt P07237); experiment: inhibition of PDI-driven insulin aggregation – biochemical, turbidity, absorbance, cherry-picked samples, dose response (AID 602350); type: functional
Chain of Protein disulfide-isomerase (P07237 whole entry): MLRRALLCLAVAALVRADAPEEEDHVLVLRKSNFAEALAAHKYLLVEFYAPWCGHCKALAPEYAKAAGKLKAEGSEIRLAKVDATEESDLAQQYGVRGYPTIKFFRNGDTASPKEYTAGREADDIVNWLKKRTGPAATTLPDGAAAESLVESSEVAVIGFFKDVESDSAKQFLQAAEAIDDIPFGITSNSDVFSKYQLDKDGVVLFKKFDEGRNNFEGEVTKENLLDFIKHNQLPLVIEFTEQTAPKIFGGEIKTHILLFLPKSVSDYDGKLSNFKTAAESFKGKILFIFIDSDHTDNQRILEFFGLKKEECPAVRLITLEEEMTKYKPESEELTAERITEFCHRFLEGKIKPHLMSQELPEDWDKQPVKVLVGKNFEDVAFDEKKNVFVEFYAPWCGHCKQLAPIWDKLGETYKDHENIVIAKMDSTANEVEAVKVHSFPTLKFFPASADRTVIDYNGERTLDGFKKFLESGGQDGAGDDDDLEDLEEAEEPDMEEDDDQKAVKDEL

[10] = biological target: Multidrug resistance protein CDR1 (Candida albicans, UniProt P43071); experiment: inhibition of Nile Red efflux via Candida CDR1 – S. cerevisiae AD1-8u, singleplex, Cherry Pick1 hits, dose response (AID 588606); type: functional
Chain of Multidrug resistance protein CDR1 (P43071 whole entry, looked up): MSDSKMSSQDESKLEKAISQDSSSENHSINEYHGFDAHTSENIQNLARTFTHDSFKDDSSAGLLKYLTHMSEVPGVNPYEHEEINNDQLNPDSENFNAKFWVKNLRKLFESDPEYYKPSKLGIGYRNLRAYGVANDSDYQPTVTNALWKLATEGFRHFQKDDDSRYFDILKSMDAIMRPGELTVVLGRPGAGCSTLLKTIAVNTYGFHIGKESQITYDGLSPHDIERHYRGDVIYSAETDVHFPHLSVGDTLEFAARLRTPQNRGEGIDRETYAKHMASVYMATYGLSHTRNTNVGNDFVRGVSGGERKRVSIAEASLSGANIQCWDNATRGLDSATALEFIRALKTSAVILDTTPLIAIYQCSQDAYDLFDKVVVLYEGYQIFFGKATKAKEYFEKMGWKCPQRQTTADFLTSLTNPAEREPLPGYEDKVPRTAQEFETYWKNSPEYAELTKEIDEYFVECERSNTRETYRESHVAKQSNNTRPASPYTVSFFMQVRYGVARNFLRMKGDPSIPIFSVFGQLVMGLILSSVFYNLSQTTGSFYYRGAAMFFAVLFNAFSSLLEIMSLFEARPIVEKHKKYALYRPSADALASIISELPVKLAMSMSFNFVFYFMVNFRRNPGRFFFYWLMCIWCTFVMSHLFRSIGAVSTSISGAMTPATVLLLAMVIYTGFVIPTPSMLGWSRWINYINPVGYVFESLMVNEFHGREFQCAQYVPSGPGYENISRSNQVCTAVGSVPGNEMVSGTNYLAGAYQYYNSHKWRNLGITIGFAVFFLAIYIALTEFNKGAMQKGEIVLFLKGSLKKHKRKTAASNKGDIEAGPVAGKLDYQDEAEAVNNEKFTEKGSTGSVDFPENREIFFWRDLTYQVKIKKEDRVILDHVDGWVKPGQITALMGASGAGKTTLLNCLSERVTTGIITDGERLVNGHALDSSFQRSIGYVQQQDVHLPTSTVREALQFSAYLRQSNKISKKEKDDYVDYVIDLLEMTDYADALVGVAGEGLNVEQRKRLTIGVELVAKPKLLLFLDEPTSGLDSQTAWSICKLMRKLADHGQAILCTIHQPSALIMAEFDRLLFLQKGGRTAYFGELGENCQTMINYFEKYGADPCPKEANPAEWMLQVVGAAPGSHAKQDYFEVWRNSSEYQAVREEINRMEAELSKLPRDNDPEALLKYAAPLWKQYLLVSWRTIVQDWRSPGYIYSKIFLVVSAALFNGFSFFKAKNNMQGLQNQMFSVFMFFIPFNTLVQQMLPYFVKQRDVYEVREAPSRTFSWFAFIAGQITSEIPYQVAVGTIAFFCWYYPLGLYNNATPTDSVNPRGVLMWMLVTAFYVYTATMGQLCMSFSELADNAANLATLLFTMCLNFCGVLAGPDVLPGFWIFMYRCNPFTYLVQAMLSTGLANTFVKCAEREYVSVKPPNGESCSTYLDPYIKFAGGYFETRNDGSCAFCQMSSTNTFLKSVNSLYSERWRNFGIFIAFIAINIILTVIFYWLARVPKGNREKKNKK

[11] = fluconazole-exposed Candida albicans growth modulators – fluorescence, retest, confirmation (AID 2467); type: functional, cell-based
Candida albicans [12] = experiment: antifungal activity against resistant Candida strain – CaCi-8, fluconazole, Alamar Blue, dry powder, dose response (AID 488807); type: functional, organism-based
Candida albicans [13] = experiment: Candida growth effect without fluconazole – C. albicans CaCi-2, dry powder, counter-screen for antifungal drug resistance project, dose response (AID 488802); type: functional, organism-based
[14] = NIH-3T3 fibroblast cytotoxicity, dose response, cytotoxicity control, cell-based, fluorescence, Alamar Blue, secondary assay (AID 2327); type: functional;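 further: NIH-3T3 mouse fibroblasts cultured with fluconazole at 8 µg/mL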
[15] = biological target: T3, High affinity choline transporter 1 (Homo sapiens, UniProt Q9GZV3); experiment: human choline transporter potentiators, potency – cell-based, 10-point CRC, membrane potential dye, dose response (AID 602376); type: functional
T3 sequence (Q9GZV3 whole entry): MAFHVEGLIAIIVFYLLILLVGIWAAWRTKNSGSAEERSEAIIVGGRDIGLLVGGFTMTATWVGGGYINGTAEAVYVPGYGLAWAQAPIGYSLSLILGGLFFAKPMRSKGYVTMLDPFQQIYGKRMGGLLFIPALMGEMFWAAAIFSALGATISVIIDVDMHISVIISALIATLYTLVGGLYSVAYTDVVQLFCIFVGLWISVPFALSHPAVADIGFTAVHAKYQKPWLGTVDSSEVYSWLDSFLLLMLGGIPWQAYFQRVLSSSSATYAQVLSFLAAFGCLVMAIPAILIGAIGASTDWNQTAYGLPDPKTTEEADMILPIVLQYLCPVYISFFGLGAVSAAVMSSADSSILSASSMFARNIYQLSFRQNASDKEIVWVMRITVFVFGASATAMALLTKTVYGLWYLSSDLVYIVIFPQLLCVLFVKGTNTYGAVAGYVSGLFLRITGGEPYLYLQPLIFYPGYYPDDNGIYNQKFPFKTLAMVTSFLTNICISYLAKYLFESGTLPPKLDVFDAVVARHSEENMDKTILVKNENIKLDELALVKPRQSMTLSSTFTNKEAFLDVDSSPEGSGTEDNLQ

[16] = biological target: G-protein coupled receptor 55 (Homo sapiens, UniProt Q9Y2T6); experiment: selective activators of receptor GPR55 – imaging, U2OS cells, beta-arrestin-GFP redistribution, primary screen (AID 1961); type: functional
Chain of G-protein coupled receptor 55 (Q9Y2T6 whole entry): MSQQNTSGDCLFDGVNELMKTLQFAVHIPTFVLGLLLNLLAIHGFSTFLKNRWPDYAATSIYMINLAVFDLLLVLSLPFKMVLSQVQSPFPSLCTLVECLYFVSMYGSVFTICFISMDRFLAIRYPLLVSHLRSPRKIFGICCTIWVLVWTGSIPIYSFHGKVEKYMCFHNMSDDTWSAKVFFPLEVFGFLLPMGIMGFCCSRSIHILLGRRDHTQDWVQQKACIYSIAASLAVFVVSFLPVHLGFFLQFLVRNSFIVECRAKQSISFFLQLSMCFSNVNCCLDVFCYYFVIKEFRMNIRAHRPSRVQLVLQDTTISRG

Compound: CCOc1ccc(-n2c(SCc3ccc([N+](=O)[O-])cc3)nnc2-c2ccc(OC)cc2)cc1
- AC50 (CAAX prenyl protease 2 [1]): 0.102 µM (active)
- AC50 (CAAX prenyl protease 2 [2]): 1.12 µM (active)
- EC50 [3]: > 53 µM (inactive)
- IC50 [4]: 1.68 µM (active)
- IC50 [5]: > 20 µM (inactive)

Compound: O=C(Nc1cccc(Cl)c1)Nc1ccnc(-c2cccnc2)n1
- AC50 [6]: 20.8 µM (active)
- AC50 [7]: 0.716 µM (active)
- AC50 [8]: 3.97 µM (active)
- Absolute IC50 (XBP1) (X-box-binding protein 1): 10 µM

Compound: CCN(CC)CCNC(=O)C(C(=O)c1ccccc1)n1ccccc1=O (configuration not stated)
- AC50 [9]: 2.16 µM (active)

Compound: CC(C)=C1C2CCC1C1C(=O)N(c3nc(-c4ccc(C(C)C)cc4)c(C)s3)C(=O)C21 (configuration not stated)
- EC50 [10]: 3.79 µM (active)

Compound: CC1CCN(C(=O)Cn2c3ccccc3c3nc4n(c(=O)c32)CCS4)CC1
- EC50 [11]: 0.979 µM (active)
- AC50 (Candida albicans [12]): 1.97 µM (active)
- AC50 (Candida albicans [13]): 108 µM (active)
- EC50 [14]: > 160 µM (inconclusive)

Compound: CSc1ccc(-c2sc(Nc3ccccc3)n[n+]2-c2ccccc2)cc1
- EC50 [15]: 7.33 µM (active)
- EC50 [16]: > 32 µM (inactive)

— ChEMBL document CHEMBL1201862, “PubChem BioAssay data set” (2004)
